Source: patent publication US20080026067A1, “Method for Increasing Specific Surface Area of Slightly Soluble Drug” (priority 2004, published 2008)

Columns and labels:
Format in all cases: physicochemical
[1] = Accelerated test (storage stability: purity by HPLC, degree of moisture by Karl Fisher); conditions: for Degree of moisture (%) / Purity (%): crushing composition
Description: 1 g of the powder of compound A was poured into the two-lay plastic bag and closed firmly with banding band. This was poured into miniature fiber dram and then this was preserved in the stability tester under the condition for 6 months, at 40° C., at 75% relative humidity. And then, the purity (quantitative value) and the degree of moisture (%) of the powder of compound A were measured. The measurement of the degree of moisture was performed by known method: the moisture vaporization method/Karl Fisher electrometrical titration method. The measurement of purity was performed by high performance liquid chromatography (HPLC).
About 0.04 mg/mL N,N-dimethylformamide/acetontirile (3/7) solution of reference material and measurement sample of compound A was prepared. In this case, the concentration of the solutions was precisely found. These solutions was set under the below test condition and the purity of measurement sample was calculated from the obtained area value of the peak.
• The detector: ultraviolet absorptiometer (measurement wavelength: 278 nm), • The column: YMC-Pack ODS-A-302 (inside diameter 4.6 mm, length 15 cm), • The mobile phase: acetonitrile/5 mmol/L sodium acetate buffer (It was prepared to pH 4.5 using acetate.)/2-propanol mixture (5/4/1), • The flow: The retention time of the compound A was prepared to be about 12 minutes (about 1.0 mL/min), • The column temperature: the constant temperature in the vicinity of 40° C. • The injection volume: 20 μL.

[2] = Measurement of tap density; conditions: tapped 3 minutes at 60 times/minute
Description: A tap density of a powder of the compound A is preferably in the range of about 0.1 to about 0.4 g/cm^3, and more preferably in the range of about 0.1 to about 0.3 g/cm^3. A tap density can be measured by known method. It includes, for example, the method that about 3 g sample is precisely weighed, it is put into dried 50 mL graduated cylinder (scale: by 0.1 mL) without consolidation, the graduated cylinder is set on tapping machine for tap density, then it is tapped for 3 minutes at 60 times/minute, final tap density is found, and value that the weight (g) of particulate is divided by final tap density (cm^3) of particulate is assumed tap density (g/cm^3), and method described in the following Examples and so on.
About 3 g of the powder of compound A is precisely weighed, it is put into dried 50 mL graduated cylinder (scale: by 0.1 mL) without consolidation, the graduated cylinder is set on tapping machine for tap density, then it is tapped for 3 minutes at 60 times/minute, final tap density is found. The value that the weight (g) of particulate is divided by final bulk density (cm^3) of particulate is assumed tap density (g/cm^3). As a result, the tap density of the powder of compound A prepared in Adjustment Example 4(3) was 0.28 g/cm^3 (non-crushing composition) and 0.13 g/cm^3 (crushing composition). The tap density of tie powder of compound A prepared in Adjustment Example 4(4) was 0.23 g/cm^3 (non-crushing composition) and 0.16 g/cm^3 (crushing composition).[

[3] = Measurement of bulk density
Description: A bulk density of a powder of the compound A is preferably in the range of about 0.05 to about 0.3 g/cm^3, and more preferably in the range of about 0.05 to about 0.2 g/cm^3. A bulk density can be measured by known method. It includes, for example, the method that about 3 g sample is precisely weighed, it is put into dried 50 mL graduated cylinder (scale: by 0.1 mL) without consolidation, it reads to minimum unit of scale and value that the weight (g) of particulate is divided by the volume (cm^3) of particulate is assumed bulk density (g/cm^3), and method described in the following Examples and so on.
About 3 g of compound A is precisely weighed, it is put into dried 50 mL graduated cylinder (scale: by 0.1 mL) without consolidation, it reads to minimum unit of scale. The value that the weight (g) of particulate is divided by the volume (cm^3) of particulate is assumed bulk density (g/cm^3). As a result, the bulk density of the powder of compound A prepared in Adjustment Example 4(3) was 0.18 g/cm^3 (non-crushing composition) and […] (crushing composition). The bulk density of compound A prepared in Adjustment Example 4(4) was 0.18 g/cm^3 (non-crushing composition) and 0.08 g/cm^3 (crushing composition).

[4] = Specific surface area of the powder, multipoint BET method
Description: A specific surface area of a powder of the compound A obtained by the above-described methods and the following Examples can be measured by known method, for example, multipoint BET method.
A specific surface area of the compound A was adjusted to give the crystalline powders with different specific surface area by the following method. As well, the measurement of specific surface area was performed by multipoint BET method.

[5] = 6 months at 40°C, 75% relative humidity
[6] = over 6 months at 40°C, 75% relative humidity

Degree of moisture (%) ([1]; 0 month): 0.1%
Purity (%) ([1]; 0 month): 98.5%
long-term storage stability [1, 5]: stable in long-term storage
Degree of moisture (%) [1, 5]: 0.1%
Purity (%) [1, 5]: 98.2%
change (increase) of degree of moisture [1, 6]: no change
decrease of purity [1, 6]: 0.3%
tap density ([2]; crushing composition): 0.16 g/mL
tap density ([2]; non-crushing composition): 0.23 g/mL
bulk density ([3]; crushing composition): 0.08 g/mL
bulk density ([3]; non-crushing composition): 0.18 g/mL
specific surface area ([4]; crushing composition (jet mill crushed)): 13.4 m^2/g
specific surface area ([4]; non-crushing composition): 11.2 m^2/g
Compound: Cc1ccc(-c2nc(CCOc3cccc4c3CCC=C4CCC(=O)O)c(C)o2)cc1 [Adjustment Example 4(4), 3-(5-{2-[5-methyl-2-(4-methylphenyl)-1,3-oxazol-4-yl]ethoxy}-3,4-dihydronaphthalen-1-yl)propanoic acid]
